Reference: ChEMBL document CHEMBL5030507, “Structure-Based Design of a Selective Class I Histone Deacetylase (HDAC) Near-Infrared (NIR) Probe for Epigenetic Regulation Detection in Triple-Negative Breast Cancer (TNBC)” (J Med Chem, 2021)

Key:
[1] = Drug distribution in NOD-SCID mouse lung xenografted with triple negative MDA-MB-231 cells at 3 nmol, iv measured 24 hrs post infection by NRI fluorescence imaging analysis; assay type: ADME, organism-based; settings: in vivo
[2] = Biodistribution in kidney of athymic nude mouse xenografted with human MDA-MB-231 cells assessed as fluorescence intensity at 3 nmol, iv measured 48 hrs post infection by epifluorescence analysis; assay type: ADME, organism-based; settings: in vivo
Homo sapiens = organism: Homo sapiens; test: Selectivity index, ratio of IC50 for inhibition of recombinant HDAC in human HeLa nuclear extracts to IC50 for inhibition of recombinant human C-terminal FLAG/His-tagged HDAC1 (1 to 482 residues) expressed in Sf9 insect cells
[3] = (§1) Drug uptake in tumor of athymic nude mouse xenografted with human MDA-MB-231 cells at 3 nmol, iv pretreated with SAHA for 3 days followed by compound addition and measured up to 48 hrs by epifluorescence analysis; assay type: ADME, organism-based, Neoplasm; settings: in vivo
[4] = Drug distribution in triple negative human MDA-MB-231 cells expressing class 1 HDACs assessed as accumulation in nucleus by measuring colocalization of Cy5.5 signal measured for 60 mins by DAPI staining based confocal microscopic analysis; assay type: ADME, cell-based; settings: mda-mb-231, 1 h
[5] = Drug distribution in NOD-SCID mouse lung xenografted with triple negative MDA-MB-231 cells assessed as accumulation in metastatic lungs by measuring increase in fluorescence intensity at 3 nmol, iv measured 24 hrs post infection by NRI fluorescence imaging analysis (Rvb= 2.2+/- 0.5 10^9/s/cm2); assay type: ADME, organism-based; settings: in vivo
[6] = as §1, with “(12Z,7S,10S)-7- (4-Aminobutyl)-4-ethylidene-10-((E)-4-(heptyldisulfaneyl)but-1-en-1-yl)-9-oxa-3,6,13-triaza-1(4,2)-thiazolacyclotetradecaphane-2,5,8,12-tetraone” for “SAHA for 3 days”; assay type: ADME, organism-based, Neoplasm; settings: in vivo
[7] = Drug uptake in tumor of athymic nude mouse xenografted with human MDA-MB-231 cells at 3 nmol, iv measured 4 hrs post infection by epifluorescence analysis; assay type: ADME, organism-based, Neoplasm; settings: in vivo
Histone deacetylase 1 = Histone deacetylase 1 (Homo sapiens, UniProt Q13547); test: Inhibition of recombinant human C-terminal FLAG/His-tagged HDAC1 (1 to 482 residues) expressed in Sf9 insect cells using fluorometric substrate measured after 60 mins by FRET assay
[8] = Drug uptake in tumor of athymic nude mouse xenografted with human MDA-MB-231 cells assessed as reduction in tumor to normal tissue ratio at 3 nmol, iv in presence of (12Z,7S,10S)-7- (4-Aminobutyl)-4-ethylidene-10-((E)-4-(heptyldisulfaneyl)but-1-en-1-yl)-9-oxa-3,6,13-triaza-1(4,2)-thiazolacyclotetradecaphane-2,5,8,12-tetraone measured up to 48 hrs by epifluorescence analysis relative to control; assay type: ADME, organism-based, Neoplasm; settings: in vivo
Histone deacetylase = test: Inhibition of recombinant HDAC in human HeLa nuclear extracts using fluorogenic substrate measured after 60 mins by FRET assay
[9] = Drug uptake in triple negative human MDA-MB-231 cells overexpressing class 1 HDACs at 1.5 uM in presence of (12Z,7S,10S)-7- (4-Aminobutyl)-4-ethylidene-10-((E)-4-(heptyldisulfaneyl)but-1-en-1-yl)-9-oxa-3,6,13-triaza-1(4,2)-thiazolacyclotetradecaphane-2,5,8,12-tetraone measured after 60 mins by DAPI staining based confocal microscopic analysis; assay type: ADME, cell-based; settings: mda-mb-231, 1 h
[10] = (§2) Biodistribution in tumor of athymic nude mouse xenografted with human MDA-MB-231 cells assessed as fluorescence intensity at 3 nmol, iv pretreated with SAHA for 3 days followed by compound addition and measured up to 48 hrs by epifluorescence analysis; assay type: ADME, organism-based, Neoplasm; settings: in vivo
[11] = Biodistribution in tumor of athymic nude mouse xenografted with human MDA-MB-231 cells assessed as fluorescence intensity at 3 nmol, iv measured 48 hrs post infection by epifluorescence analysis; assay type: ADME, organism-based, Neoplasm; settings: in vivo
[12] = as §2, with “(12Z,7S,10S)-7- (4-Aminobutyl)-4-ethylidene-10-((E)-4-(heptyldisulfaneyl)but-1-en-1-yl)-9-oxa-3,6,13-triaza-1(4,2)-thiazolacyclotetradecaphane-2,5,8,12-tetraone” for “SAHA for 3 days”, “after” for “up to”; assay type: ADME, organism-based, Neoplasm; settings: in vivo
[13] = target: T1, Protein deacetylase HDAC6 (Homo sapiens, UniProt Q9UBN7); test: Inhibition of recombinant human full length N-terminal GST-tagged HDAC6 expressed in Sf9 cells using fluorogenic substrate measured after 60 mins by FRET assay
T1 sequence (Q9UBN7 whole entry): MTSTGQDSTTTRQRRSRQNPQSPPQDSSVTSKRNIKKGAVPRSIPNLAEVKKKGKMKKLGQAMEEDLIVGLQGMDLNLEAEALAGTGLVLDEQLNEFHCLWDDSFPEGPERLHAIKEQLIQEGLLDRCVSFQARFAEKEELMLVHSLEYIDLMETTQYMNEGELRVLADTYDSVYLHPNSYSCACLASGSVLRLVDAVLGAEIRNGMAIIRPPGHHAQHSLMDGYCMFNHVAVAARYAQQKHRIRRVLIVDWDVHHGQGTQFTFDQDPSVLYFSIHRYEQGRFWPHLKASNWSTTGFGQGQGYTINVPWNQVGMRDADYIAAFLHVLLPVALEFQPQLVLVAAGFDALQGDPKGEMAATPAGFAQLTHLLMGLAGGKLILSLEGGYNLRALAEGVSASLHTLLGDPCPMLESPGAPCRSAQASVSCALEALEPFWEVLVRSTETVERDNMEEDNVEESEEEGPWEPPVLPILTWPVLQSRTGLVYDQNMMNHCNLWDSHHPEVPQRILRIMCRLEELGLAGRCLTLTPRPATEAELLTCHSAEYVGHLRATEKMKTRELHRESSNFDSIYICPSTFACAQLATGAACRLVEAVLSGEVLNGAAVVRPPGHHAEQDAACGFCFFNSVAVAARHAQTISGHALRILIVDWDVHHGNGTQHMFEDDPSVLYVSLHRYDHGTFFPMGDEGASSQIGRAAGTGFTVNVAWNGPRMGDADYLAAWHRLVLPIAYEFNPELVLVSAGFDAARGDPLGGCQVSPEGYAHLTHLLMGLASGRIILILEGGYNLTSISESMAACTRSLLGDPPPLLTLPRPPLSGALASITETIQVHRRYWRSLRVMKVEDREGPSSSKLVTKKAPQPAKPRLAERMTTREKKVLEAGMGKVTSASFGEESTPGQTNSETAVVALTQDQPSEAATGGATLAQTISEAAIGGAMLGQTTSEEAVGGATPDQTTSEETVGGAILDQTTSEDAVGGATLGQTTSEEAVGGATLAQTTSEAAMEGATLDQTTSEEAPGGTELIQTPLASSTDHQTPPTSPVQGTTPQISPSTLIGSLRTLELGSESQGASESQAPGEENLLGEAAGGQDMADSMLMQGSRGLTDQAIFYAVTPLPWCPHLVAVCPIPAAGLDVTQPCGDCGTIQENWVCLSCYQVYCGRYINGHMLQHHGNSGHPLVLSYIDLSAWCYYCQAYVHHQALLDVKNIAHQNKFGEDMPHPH

[14] = Selectivity index, ratio of GI50 for cytotoxicity against human WI-38 cells to GI50 for antiproliferative activity against triple-negative human MDA-MB-231 cells; assay type: toxicity, cell-based; settings: WI-38 cells versus MDA-MB-231 cells, read-out: RatioGI50
[15] = Cytotoxicity against human WI-38 cells assessed as cell growth inhibition incubated for 72 hrs by CCK8 assay; assay type: cell-based
[16] = target: Histone deacetylase 3/Nuclear receptor corepressor 2 (HDAC3/NCoR2) (Homo sapiens, UniProt O15379); test: Inhibition of C-terminal His-tagged recombinant human HDAC3 (1 to 428 residues)/N-terminal GST-tagged recombinant human NCoR2 (395 to 489 residues) co-expressed in baculovirus infected Sf9 cells using fluorometric substrate measured after 60 mins by FRET assay
Histone deacetylase 8 = target: T2, Histone deacetylase 8 (Homo sapiens, UniProt Q9BY41); test: Inhibition of recombinant human full length C-terminal His-tagged HDAC8 expressed in baculovirus infected Sf9 insect cells using fluorometric substrate measured after 60 mins by FRET assay
T2 sequence (Q9BY41 whole entry): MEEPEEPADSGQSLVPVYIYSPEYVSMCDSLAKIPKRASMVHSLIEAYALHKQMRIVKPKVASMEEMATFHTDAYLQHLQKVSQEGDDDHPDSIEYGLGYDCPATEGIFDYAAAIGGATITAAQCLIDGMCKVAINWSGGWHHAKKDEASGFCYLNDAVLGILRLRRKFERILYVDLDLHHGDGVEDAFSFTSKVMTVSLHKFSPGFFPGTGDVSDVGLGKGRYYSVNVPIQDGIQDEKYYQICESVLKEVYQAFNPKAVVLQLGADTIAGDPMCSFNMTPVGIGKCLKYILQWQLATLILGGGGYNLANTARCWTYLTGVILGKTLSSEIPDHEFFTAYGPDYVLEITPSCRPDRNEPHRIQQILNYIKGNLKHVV

[17] = target: T3, Polyamine deacetylase HDAC10 (Homo sapiens, UniProt Q969S8); test: Inhibition of recombinant human N-terminal FLAG tagged HDAC10 (2 to 631 residues) expressed in baculovirus infected Sf9 insect cells using fluorogenic substrate measured after 60 mins by FRET assay
T3 sequence (Q969S8 whole entry): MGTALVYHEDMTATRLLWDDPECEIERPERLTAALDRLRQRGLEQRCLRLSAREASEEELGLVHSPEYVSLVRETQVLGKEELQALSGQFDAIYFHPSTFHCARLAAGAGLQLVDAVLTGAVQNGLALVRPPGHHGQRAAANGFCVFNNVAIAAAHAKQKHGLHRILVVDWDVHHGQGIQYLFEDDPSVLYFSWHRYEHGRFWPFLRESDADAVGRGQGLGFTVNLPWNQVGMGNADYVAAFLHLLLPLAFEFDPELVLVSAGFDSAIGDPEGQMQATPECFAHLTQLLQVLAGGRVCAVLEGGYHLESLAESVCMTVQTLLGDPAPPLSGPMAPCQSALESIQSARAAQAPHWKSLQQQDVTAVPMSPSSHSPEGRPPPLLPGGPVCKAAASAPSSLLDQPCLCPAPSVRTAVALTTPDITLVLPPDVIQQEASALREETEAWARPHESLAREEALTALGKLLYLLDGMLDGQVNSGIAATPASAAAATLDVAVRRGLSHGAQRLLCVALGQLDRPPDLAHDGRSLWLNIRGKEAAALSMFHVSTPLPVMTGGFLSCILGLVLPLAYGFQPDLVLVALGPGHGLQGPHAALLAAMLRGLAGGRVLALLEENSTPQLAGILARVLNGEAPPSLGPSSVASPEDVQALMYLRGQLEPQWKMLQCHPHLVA

Histone deacetylase 2 = Histone deacetylase 2 (Homo sapiens, UniProt Q92769); test: biochemical; assay type: cell-based, Sf9
Description: Inhibition of recombinant human full length C-terminal His- tagged HDAC2 (1 to 488 residues) expressed in Sf9 insect cells using fluorometric substrate measured after 60 mins by FRET assay

MDA-MB-231 = test: Antiproliferative activity against triple-negative human MDA-MB-231 cells assessed as cell growth inhibition incubated for 72 hrs by CCK8 assay; assay type: functional

Chain of Histone deacetylase 1 (Q13547 whole entry, the tested form may be a part): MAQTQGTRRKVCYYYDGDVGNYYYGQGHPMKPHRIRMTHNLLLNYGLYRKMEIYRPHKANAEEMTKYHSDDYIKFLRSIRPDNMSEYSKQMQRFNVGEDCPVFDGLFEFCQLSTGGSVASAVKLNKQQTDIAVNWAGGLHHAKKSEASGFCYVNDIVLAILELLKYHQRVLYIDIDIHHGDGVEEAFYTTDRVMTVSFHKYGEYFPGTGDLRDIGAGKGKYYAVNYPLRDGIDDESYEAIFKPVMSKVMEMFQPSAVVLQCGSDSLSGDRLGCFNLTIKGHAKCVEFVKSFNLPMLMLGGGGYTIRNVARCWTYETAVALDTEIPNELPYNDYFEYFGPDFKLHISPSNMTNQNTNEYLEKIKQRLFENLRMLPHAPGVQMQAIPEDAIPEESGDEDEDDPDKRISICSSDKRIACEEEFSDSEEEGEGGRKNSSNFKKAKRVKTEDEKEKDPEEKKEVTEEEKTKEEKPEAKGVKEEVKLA
Chain of Histone deacetylase 3/Nuclear receptor corepressor 2 (HDAC3/NCoR2) (O15379 whole entry, the tested form may be a part): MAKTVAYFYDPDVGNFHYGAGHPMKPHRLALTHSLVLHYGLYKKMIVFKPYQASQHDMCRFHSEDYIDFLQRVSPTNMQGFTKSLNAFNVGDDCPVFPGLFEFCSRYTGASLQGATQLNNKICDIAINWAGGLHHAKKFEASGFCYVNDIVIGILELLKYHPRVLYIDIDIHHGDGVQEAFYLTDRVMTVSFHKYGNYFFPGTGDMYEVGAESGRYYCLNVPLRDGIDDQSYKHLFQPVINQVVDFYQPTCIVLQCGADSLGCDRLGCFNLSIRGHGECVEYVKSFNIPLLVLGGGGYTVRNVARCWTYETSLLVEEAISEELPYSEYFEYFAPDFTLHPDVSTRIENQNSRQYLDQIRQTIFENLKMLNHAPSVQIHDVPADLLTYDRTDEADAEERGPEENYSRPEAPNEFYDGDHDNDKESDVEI
Chain of Histone deacetylase 3/Nuclear receptor corepressor 2 (HDAC3/NCoR2) (Q9Y618 whole entry, further chain, the tested form may be a part): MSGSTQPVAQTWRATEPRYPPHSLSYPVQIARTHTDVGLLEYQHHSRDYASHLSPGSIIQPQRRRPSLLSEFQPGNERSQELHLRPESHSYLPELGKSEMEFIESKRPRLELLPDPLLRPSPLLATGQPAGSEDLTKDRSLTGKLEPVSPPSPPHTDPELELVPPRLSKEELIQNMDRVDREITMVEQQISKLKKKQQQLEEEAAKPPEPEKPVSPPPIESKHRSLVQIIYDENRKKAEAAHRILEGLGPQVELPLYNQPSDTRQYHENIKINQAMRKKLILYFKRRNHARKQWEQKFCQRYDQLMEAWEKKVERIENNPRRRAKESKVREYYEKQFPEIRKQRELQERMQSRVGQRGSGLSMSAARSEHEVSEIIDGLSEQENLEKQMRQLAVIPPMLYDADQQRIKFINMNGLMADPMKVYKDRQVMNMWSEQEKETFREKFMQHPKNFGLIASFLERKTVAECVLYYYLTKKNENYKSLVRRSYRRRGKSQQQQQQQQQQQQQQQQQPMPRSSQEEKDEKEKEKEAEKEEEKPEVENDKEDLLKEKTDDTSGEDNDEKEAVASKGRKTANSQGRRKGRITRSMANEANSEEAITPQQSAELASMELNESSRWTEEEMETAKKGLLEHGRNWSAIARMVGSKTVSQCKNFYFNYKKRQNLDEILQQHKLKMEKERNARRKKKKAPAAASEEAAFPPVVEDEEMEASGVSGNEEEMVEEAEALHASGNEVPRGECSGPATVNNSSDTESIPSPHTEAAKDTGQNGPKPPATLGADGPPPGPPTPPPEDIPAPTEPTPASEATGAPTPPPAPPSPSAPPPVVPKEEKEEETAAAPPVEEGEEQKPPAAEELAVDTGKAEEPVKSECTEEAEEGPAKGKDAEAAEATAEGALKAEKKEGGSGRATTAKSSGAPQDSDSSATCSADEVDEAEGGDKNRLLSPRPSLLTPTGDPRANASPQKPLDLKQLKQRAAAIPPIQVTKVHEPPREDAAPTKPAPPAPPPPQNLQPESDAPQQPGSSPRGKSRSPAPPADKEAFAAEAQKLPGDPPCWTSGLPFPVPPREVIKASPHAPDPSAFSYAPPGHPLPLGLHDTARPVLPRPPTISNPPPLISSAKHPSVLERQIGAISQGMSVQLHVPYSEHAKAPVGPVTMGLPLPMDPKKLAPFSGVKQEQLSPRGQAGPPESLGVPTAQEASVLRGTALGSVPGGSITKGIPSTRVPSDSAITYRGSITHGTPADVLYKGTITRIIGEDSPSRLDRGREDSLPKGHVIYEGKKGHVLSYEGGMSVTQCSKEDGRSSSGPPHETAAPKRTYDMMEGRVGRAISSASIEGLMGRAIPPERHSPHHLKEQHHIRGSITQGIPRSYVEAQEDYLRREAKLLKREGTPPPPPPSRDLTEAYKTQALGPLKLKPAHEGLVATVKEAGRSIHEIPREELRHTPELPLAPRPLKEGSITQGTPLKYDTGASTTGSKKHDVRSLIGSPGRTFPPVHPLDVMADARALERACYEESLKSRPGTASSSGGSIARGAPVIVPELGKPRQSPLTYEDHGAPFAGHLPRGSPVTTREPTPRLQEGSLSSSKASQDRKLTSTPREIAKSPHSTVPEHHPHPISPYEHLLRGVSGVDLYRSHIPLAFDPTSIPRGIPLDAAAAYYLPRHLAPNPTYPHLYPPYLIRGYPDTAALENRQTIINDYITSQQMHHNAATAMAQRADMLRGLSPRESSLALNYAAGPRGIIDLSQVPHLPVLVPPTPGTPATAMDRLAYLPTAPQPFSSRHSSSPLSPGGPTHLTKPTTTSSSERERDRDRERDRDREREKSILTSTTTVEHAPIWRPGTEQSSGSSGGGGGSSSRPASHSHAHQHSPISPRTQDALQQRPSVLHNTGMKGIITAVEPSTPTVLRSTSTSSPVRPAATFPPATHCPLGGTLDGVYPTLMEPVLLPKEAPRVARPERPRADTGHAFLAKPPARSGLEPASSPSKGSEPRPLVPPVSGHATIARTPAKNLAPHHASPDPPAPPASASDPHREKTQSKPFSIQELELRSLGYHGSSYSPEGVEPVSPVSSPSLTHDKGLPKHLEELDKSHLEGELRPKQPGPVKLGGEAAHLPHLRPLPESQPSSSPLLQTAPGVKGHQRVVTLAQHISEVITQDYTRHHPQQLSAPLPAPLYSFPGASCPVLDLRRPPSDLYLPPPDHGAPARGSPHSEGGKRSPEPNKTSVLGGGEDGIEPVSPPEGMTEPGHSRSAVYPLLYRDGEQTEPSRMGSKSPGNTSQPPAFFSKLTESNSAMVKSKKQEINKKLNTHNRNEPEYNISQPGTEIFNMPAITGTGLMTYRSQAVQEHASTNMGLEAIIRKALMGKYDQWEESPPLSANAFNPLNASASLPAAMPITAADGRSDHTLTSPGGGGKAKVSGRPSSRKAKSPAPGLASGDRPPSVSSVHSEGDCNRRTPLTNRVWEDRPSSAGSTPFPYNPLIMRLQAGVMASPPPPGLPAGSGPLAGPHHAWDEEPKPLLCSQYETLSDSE
Chain of Histone deacetylase 2 (Q92769 whole entry): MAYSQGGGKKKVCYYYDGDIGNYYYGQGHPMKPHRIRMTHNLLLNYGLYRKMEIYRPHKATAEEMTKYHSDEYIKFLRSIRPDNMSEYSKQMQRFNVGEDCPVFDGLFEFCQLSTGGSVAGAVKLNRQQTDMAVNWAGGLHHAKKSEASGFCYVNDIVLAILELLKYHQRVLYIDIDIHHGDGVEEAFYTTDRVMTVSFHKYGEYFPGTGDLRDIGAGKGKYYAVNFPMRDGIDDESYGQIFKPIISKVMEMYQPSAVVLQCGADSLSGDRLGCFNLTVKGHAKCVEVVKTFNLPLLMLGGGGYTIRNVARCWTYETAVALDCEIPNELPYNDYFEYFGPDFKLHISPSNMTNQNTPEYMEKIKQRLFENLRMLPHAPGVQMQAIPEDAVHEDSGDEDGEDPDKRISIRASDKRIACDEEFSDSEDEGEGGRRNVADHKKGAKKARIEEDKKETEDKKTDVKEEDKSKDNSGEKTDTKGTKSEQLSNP

C/C=C1\NC(=O)c2csc(n2)CNC(=O)C[C@@H](/C=C/CCSSCCCCCCC)OC(=O)[C@H](CCCCNC(=O)CCCCC[N+]2=C(/C=C/C=C/C=C3/N(CC)c4ccc5c(S(=O)(=O)O)cc(S(=O)(=O)O)cc5c4C3(C)C)C(C)(C)c3c2ccc2c(S(=O)(=O)[O-])cc(S(=O)(=O)O)cc32)NC1=O
Drug uptake [1]: Active | Flu intensity [2]: 3.06 10^9/s/cm2 | Ratio IC50 (Homo sapiens): 100 | Drug uptake [3]: Not Active | Drug uptake [4]: Active | Flu intensity [5]: 8 10^9/s/cm2 | Drug uptake [6]: Not Active | Drug uptake [7]: Active | IC50 (Histone deacetylase 1): 8 nM | Drug uptake [8]: 70% | IC50 (Histone deacetylase): 824 nM | Drug uptake [9]: Not Active | Flu intensity [10]: 1.33 10^9/s/cm2 | Flu intensity [11]: 3.13 10^9/s/cm2 | Flu intensity [12]: 1.95 10^9/s/cm2 | IC50 [13]: 70 nM

C/C=C1\NC(=O)[C@H]2CSSCC/C=C/[C@H](CC(=O)N[C@H](C(C)C)C(=O)N2)OC(=O)[C@H](C(C)C)NC1=O [ROMIDEPSIN]
selectivity ratio [14]: 3.1 | GI50 at 72 h [15]: 30.1 nM

C/C=C1\NC(=O)c2csc(n2)CNC(=O)C[C@@H](/C=C/CCSC(=O)CCCCCCC)OC(=O)[C@H](C(C)C)NC1=O
selectivity ratio [14]: 32 | IC50 [16]: 8.9 nM | IC50 (Histone deacetylase 8): 3960 nM | IC50 [17]: 37 nM | GI50 at 72 h [15]: 363 nM | IC50 (Histone deacetylase 2): 5.3 nM | IC50 (Histone deacetylase 1): 3.1 nM | GI50 (MDA-MB-231): 11.3 nM | IC50 [13]: 1810 nM
